Results on 4 molecules are retold here after article PMC3409241, “Probing Cocaine-Antibody Interactions in Buffer and Human Serum” (PLoS ONE, 2012).

A word on the IC50: it is the midpoint of a concentration-inhibition curve. High values mean lower potency, low ones higher potency.

For data set [1], the target named is mAb08. In words: SPR competitive inhibition of mAb08 binding to immobilized BSA-SNC. As to conditions: 50 nM mAb08 mixed with increasing drug concentrations. On the set-up: species or system mouse.
The target in a further data set is 20% human serum. Put plainly: ITC titration of cocaine into 20% control human serum. In kind it is binding. On the procedure:
(§1) ITC experiments were performed using an ITC-200 micro calorimeter from MicroCal (Northampton, MA, USA). Samples were dialyzed against PBS buffer and degassed prior to loading into the ITC cell. The drug samples were prepared in the same buffer to avoid buffer mismatch. Titrations were performed at 25°C by injecting consecutive aliquots (2 µl) of 45 µM drug into the ITC cell (volume of 200 µl) containing 3 µM antibody at 500 rpm stirring rate. Intervals between injections were set to be 150 sec in order to allow the heat from each injection to return to the baseline. Heats of dilution control experiments were performed by titrating ligand into buffer. The heats associated with the control titration were subtraced from the raw binding data prior to fitting. The data were fitted assuming that the antibody binding sites are identical using a single set binding model included in the Origin 7.0 software provided by the manufacturer. ITC directly measures the change in heat associated with two components going from the free to the bound state. Thus the observed molar change in enthalpy (ΔHobs) can be determined.
(§2) The thermodynamic parameters associated with the binding of cocaine to human serum and human serum albumin were investigated using ITC. We titrated 45 µM of cocaine to 20% of control human serum (no anti-cocaine antibodies) dialyzed against PBS (Figure 4A).

For a further data set, the system named is nonspecific human IgG. Put plainly: ITC of cocaine in presence of nonspecific human IgG. In kind it is binding. As to conditions: 7 µM non-specific human IgG with mAb08. On the procedure:
as §1, §2

A further data set deals with human serum albumin (Homo sapiens, UniProt P02768). In words: ITC titration of cocaine into human serum albumin. In kind it is binding. As to conditions: 5 µM HSA against 45 µM cocaine in PBS. The method, then:
as §1, §2
A general note: In ITC the heat of successive injections is recorded.

The next data set has as its target f-mAb08. Put plainly: MST of fluorescently labeled f-mAb08 binding to drugs. More on the design: species or system mouse. The following applies: 25°C. On the procedure:
The fluorescent labeling was performed with a reactive RED dye (NT-647) following the manufacturer’s protocol (Nanotemper, Germany). […] Free dye was removed by purification on a Sephadex G-25 column provided with the kit. MST assays were carried out as described in Jerabek-Willesmsen et al.. Serial dilutions of unlabeled drug or antibody samples were mixed with 20 nM of NT-647-labeled proteins in PBS buffer (25 mM phosphate pH 7.4, 150 mM NaCl, 0.05% Tween-20) and incubated for 20 minutes. About 10 µl of sample was loaded into standard monolith NT capillaries provided by the manufacturer and assays were performed in a Nanotemper Monolith NT.015T. The Red fluorescence was exited using a light-emitting diode, and its emission was recorded at a focused location of capillary. Using another infrared laser diode a microscopic temperature gradient was created at the same location and the fluorescence depletion was measured. By plotting the concentrations of unlabeled binding partner with the changes in fluorescent thermophoresis signal, K D values were determined using the Nanotemper analysis software. The overlay diagram was made by normalizing the data to fraction bound.

Data set [2] deals with mAb08. In words: ITC titration of drug into mAb08. The following applies: 25°C. In kind it is binding, mouse. On the procedure: as §1
The binding isotherms, which is the incremental heat release as a function of complex formation is shown in the lower panel of Fig. 3. The solid line corresponds to the fit to a binding model to yield the equilibrium binding constant, K D, and the binding parameters, n and ΔH obs. The results of data analysis are shown in Table 1 along with the derived parameters, ΔGcal and ΔScal.
as §2

A further data set deals with Clone 402. Put plainly: ITC titration of cocaine into Clone 402 antibody. The format is binding. The method, then: as §1
The conditions of data set [3]: cited from earlier work.
Data set [4] has as its target enriched polyclonal antibodies purified from mouse or patient serum. In words: SPR competitive inhibition of enriched polyclonal antibody binding to immobilized BSA-SNC. On the procedure: (§3) Data was collected using a medium collection rate at 25°C. The instrument was primed a few times using the running buffer before injecting the concentration series. For every binding cycle, the antibody samples were injected for 1.5 minutes at 50 µl/min flow rate and dissociation was monitored for 5 minutes. The bound antibody was releasedwith two 15 µl injections of pH 1.5 glycine buffer. The kinetic constants of binding were obtained using a 1∶1 Langmuir binding model. The raw data sets were analyzed using BIAevaluation (version 3.2) provided by BIAcore Inc. (Uppsala, Sweden). After the subtraction of background responses from the control flow cells, the association and dissociation phases were globally fitted for all the sensorgrams simultaneously, omitting any noisy data at the beginning and end of the analyte injection.

For the next data set, the system named is cAMP kinase. On the set-up: method as in PMID 20981028. As to conditions: in presence of 30% human serum; cited from earlier work.
Data set [5] relates to RR6 enriched polyclonal antibodies. In words: SPR competitive inhibition of RR6 enriched polyclonal antibody binding to immobilized BSA-SNC. On the set-up: species or system mouse. The method, then:
as §3

The mark [6] stands for this setting: 20 nM f-mAb08, 20% control human serum, read-out: K D ^2 (nM) (Serum%).
[7] abbreviates: 20 nM f-mAb08, PBS (phosphate buffer), read-out: K D ^1 (nM) Enriched IgG.

Entries after “also recorded” stand apart in the source; their conditions may differ. Where a name gives a salt, the structure may show the parent alone. Read-outs that look alike come from different tables or passages of the source.

Chain of human serum albumin (P02768 25-609): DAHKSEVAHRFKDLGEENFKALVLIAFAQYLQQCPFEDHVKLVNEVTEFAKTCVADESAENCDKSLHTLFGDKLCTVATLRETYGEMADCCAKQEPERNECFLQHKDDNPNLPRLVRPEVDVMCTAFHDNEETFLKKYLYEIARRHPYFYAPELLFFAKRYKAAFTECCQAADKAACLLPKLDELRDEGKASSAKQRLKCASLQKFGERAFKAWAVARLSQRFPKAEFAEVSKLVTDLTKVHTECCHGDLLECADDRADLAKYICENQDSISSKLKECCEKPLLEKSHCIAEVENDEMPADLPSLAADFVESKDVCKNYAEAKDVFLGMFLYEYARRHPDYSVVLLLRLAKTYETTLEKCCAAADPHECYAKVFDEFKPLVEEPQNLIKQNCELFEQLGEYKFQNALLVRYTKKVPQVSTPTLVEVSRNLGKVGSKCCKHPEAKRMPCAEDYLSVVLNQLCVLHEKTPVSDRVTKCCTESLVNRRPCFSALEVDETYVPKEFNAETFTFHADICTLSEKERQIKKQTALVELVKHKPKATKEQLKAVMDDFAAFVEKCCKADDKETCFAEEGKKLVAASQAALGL

`COC(=O)[C@H]1[C@@H](OC(=O)c2ccccc2)C[C@@H]2CC[C@H]1N2C` [Cocaine, Cocaine hydrochloride]: the IC50 was roughly 100 nM on mAb08 [1], roughly 104 nM at mAb08 [1] (listed as cocaine) and 100 to 500 nM in data set [4]. Also, the Kd at 20% human serum (45 µM cocaine to 20% control human serum) is roughly 2000 nM; on 20% human serum (25°C, sample 20% Serum), 2000 nM; at f-mAb08 (setting [6]) it was 105 nM; on f-mAb08 (20 nM f-mAb08, 50% control human serum, listed as cocaine, read-out: K D ^2 (nM) (Serum%)) it was roughly 100 nM; on f-mAb08 (20 nM f-mAb08, 50% control human serum, read-out: K D ^2 (nM) (Serum%)), 128 nM; at f-mAb08 (setting [7]) it was 7.8 nM. Besides, the Kd is 2.5 ± 6.8 nM on mAb08 [2] (PBS pH 7.4, sample mAb08); 4 ± 10.5 nM at mAb08 [2] (sample mAb08+7 µM hIgG); 113 nM at mAb08 [2] (sample mAb08+20% Serum); roughly 113 nM on mAb08 [2] (sample mAb08+20% Serum, listed as cocaine); 10000 nM on Clone 402 (ITC, 25°C, sample Clone 402, read-out: K D); roughly 10000 nM on Clone 402 (clone 402 (Arista Biologicals), read-out: affinity to cocaine). Further, the ΔGcal in the data set with 20% human serum (25°C, sample 20% Serum) was -7.8 kcal/mol; in the data set with mAb08 [2] (PBS pH 7.4, sample mAb08), -11.7 kcal/mol; in the data set with mAb08 [2] (sample mAb08+7 µM hIgG), -11.5 kcal/mol; in the data set on mAb08 [2] (sample mAb08+20% Serum), -9.5 kcal/mol; with Clone 402 (ITC, 25°C, sample Clone 402) it was -6.8 kcal/mol. Also, the ΔHobs in the data set with 20% human serum (25°C, sample 20% Serum) was -21.82 ± 3.16 kcal/mol; in the data set with mAb08 [2] (PBS pH 7.4, sample mAb08) it was -28.08 ± 0.37 kcal/mol; in the data set with mAb08 [2] (sample mAb08+7 µM hIgG) it was -28.58 ± 0.35 kcal/mol; with mAb08 [2] (sample mAb08+7 µM hIgG, listed as cocaine) it was -28 kcal/mol; in the data set on mAb08 [2] (sample mAb08+20% Serum) it was -33.19 ± 0.61 kcal/mol; in the data set on Clone 402 (ITC, 25°C, sample Clone 402), -26.4 ± 1.93 kcal/mol. In addition, the ΔScal in the data set on 20% human serum (25°C, sample 20% Serum) was −47.1 cal.mol^−1K^−1; in the data set with mAb08 [2] (PBS pH 7.4, sample mAb08) it was −54.8 cal.mol^−1K^−1; with mAb08 [2] (sample mAb08+7 µM hIgG), −57.4 cal.mol^−1K^−1; in the data set on mAb08 [2] (sample mAb08+20% Serum), −79.5 cal.mol^−1K^−1; with Clone 402 (ITC, 25°C, sample Clone 402), −65.6 cal.mol^−1K^−1. The “binding to nonspecific human IgG” value in the data set on nonspecific human IgG was “very little interaction; also recorded: absence of non-specific cocaine binding”. Also, the “binding to human serum albumin” value on human serum albumin is “very little interaction; also recorded: no detectable binding; also recorded: does not bind strongly”. In addition, in [3] (depends on route of administration), the elimination half-life was 1 to 1.5 h.
Consider `O=c1c(O)c(-c2ccc(O)c(O)c2)oc2cc(O)cc(O)c12` [quercetin], for which the “fold decrease in affinity” value with cAMP kinase is 400 fold.
As for `CN1[C@H]2CC[C@@H]1[C@@H](C(=O)O)[C@@H](OC(=O)c1ccccc1)C2` [Benzoylecgonine], on mAb08 [1], the IC50 came to 123 nM. The same molecule registered an IC50 at mAb08 [1] (listed as BE) of roughly 123 nM. Also, at f-mAb08 (setting [6]), the Kd worked out at 98 nM. Also, the Kd at f-mAb08 (setting [7]) stood at 23.7 nM. Besides, at mAb08 [2] (PBS pH 7.4, sample mAb08), the Kd is 18.6 ± 48.7 nM, the ΔGcal is -10.5 kcal/mol, the ΔHobs is -21.66 ± 0.61 kcal/mol and the ΔScal is reported as −37.3 cal.mol^−1K^−1. Further, the elimination half-life in data set [3] was 6 to 8 h. In addition, the “inhibition of RR6 enriched fraction binding to BSA-SNC” value in data set [5] was “did not show any significant inhibition”.
With `CCOC(=O)[C@@H]1C2CCC(C[C@@H]1OC(=O)c1ccccc1)N2C` (stereo partly drawn) [Cocaethylene], the Kd on f-mAb08 (setting [6]) stood at 169 nM. For the same molecule, the Kd at f-mAb08 (setting [7]) worked out at 47 nM. Besides, at mAb08 [2] (PBS pH 7.4, sample mAb08), the Kd was 34.4 nM, the ΔGcal was -10.2 kcal/mol, the ΔHobs is -21.16 ± 0.48 kcal/mol and the ΔScal is −36.8 cal.mol^−1K^−1.
